This is an account of results in ChEMBL document CHEMBL3390848, “Affinity selection and sequence-activity relationships of HIV-1 membrane fusion inhibitors directed at the drug-resistant variants” (Medchemcomm, 2010).

In assay [1] the test system is Human immunodeficiency virus 1. In words: Antiviral activity against HIV1 NL4-3 harboring gp41 D36G mutant infected in human HeLa cells expressing CD4-LTR-beta-gal assessed as inhibition of viral replication after 48 hrs by MAGI assay. In kind it is functional, organism-based.
Assay [2] relates to Human immunodeficiency virus 1. The assay can be described thus: Binding affinity to HIV1 His-tagged N-terminal heptad repeat of envelope glycoprotein gp41 assessed as recovery of N54-drug complex after 2 hrs by LC-MS analysis. More on the design: concentration or dose not given beside the values.
In assay [3] the test system is Human immunodeficiency virus 1. The assay can be described thus: Thermal stability of HIV1 envelope glycoprotein gp41 His-tagged N-terminal heptad repeat N54-drug complex assessed as thermal unfolding transition state by measuring molar ellipticity at 4 to 90 degC by circular dichroic spectra analysis.

pEC50: −log10 of the molar value. Residues, ends and D or L forms follow the SMILES beside them. Bounds are passed on as bounds.

The pEC50 is −log10 of the EC50, conventionally taken in molar units. For orientation: Tm means the temperature at the midpoint of the melting transition. Take `CC[C@H](C)[C@H](NC(=O)[C@H](CCC(=O)O)NC(=O)[C@H](CCC(=O)O)NC(=O)[C@H](CO)NC(=O)[C@H](CCCCN)NC(=O)[C@H](CCCCN)NC(=O)[C@@H](NC(=O)[C@H](CC(C)C)NC(=O)[C@H](CCC(=O)O)NC(=O)[C@H](CCC(=O)O)NC(=O)[C@@H](NC(=O)[C@H](CC(C)C)NC(=O)[C@H](CO)NC(=O)[C@@H](NC(=O)[C@H](Cc1ccc(O)cc1)NC(C)=O)[C@@H](C)O)[C@@H](C)CC)[C@@H](C)CC)C(=O)N[C@@H](CCC(N)=O)C(=O)N[C@@H](CCCCN)C(=O)N[C@@H](CCCCN)C(=O)N[C@@H](CC(N)=O)C(=O)N[C@@H](CCC(=O)O)C(=O)N[C@@H](CCC(=O)O)C(=O)N[C@@H](CCC(=O)O)C(=O)N[C@@H](CC(C)C)C(=O)N[C@@H](CCCCN)C(=O)N[C@@H](CCCCN)C(=O)N[C@@H](CC(C)C)C(=O)N[C@@H](CCC(=O)O)C(=O)N[C@@H](CCC(=O)O)C(=O)N[C@@H](Cc1c[nH]c2ccccc12)C(=O)N[C@@H](C)C(=O)N[C@@H](CCCCN)C(=O)N[C@@H](CCCCN)C(=O)N[C@@H](Cc1c[nH]c2ccccc12)C(=O)N[C@@H](CC(N)=O)C(=O)N[C@@H](Cc1c[nH]c2ccccc12)C(=O)N[C@@H](Cc1ccccc1)C(N)=O` (Ac-YTSLIEELIKKSEEIQKKNEEELKKLEEWAKKWNWF-NH2): the negative logarithm of the EC50 (pEC50) in assay [1] was 9.10. The Activity in assay [2] amounted to 10.4%. In addition, the melting temperature (Tm) in assay [3] is 74 °C.

For `CC[C@H](C)[C@H](NC(=O)[C@H](CC(C)C)NC(=O)[C@H](CCC(=O)O)NC(=O)[C@H](CCC(=O)O)NC(=O)[C@@H](NC(=O)[C@H](CC(C)C)NC(=O)[C@H](CO)NC(=O)[C@@H](NC(=O)[C@H](Cc1ccc(O)cc1)NC(C)=O)[C@@H](C)O)[C@@H](C)CC)C(=O)N[C@@H](CCCCN)C(=O)N[C@@H](CCCCN)C(=O)N[C@@H](CO)C(=O)N[C@@H](CCC(=O)O)C(=O)N[C@@H](CCC(=O)O)C(=O)N[C@@H](CCCCN)C(=O)N[C@@H](CCC(N)=O)C(=O)N[C@@H](CCCCN)C(=O)N[C@@H](CCCCN)C(=O)N[C@@H](CC(N)=O)C(=O)N[C@@H](CCC(=O)O)C(=O)N[C@@H](CCC(=O)O)C(=O)N[C@@H](CCC(=O)O)C(=O)N[C@@H](CC(C)C)C(=O)N[C@@H](CCCCN)C(=O)N[C@@H](CCCCN)C(=O)N[C@@H](CC(C)C)C(=O)N[C@@H](CCC(=O)O)C(=O)N[C@@H](CCC(=O)O)C(=O)N[C@@H](Cc1c[nH]c2ccccc12)C(=O)N[C@@H](C)C(=O)N[C@@H](CCCCN)C(=O)N[C@@H](CCCCN)C(=O)N[C@@H](Cc1c[nH]c2ccccc12)C(=O)N[C@@H](CC(N)=O)C(=O)N[C@@H](Cc1c[nH]c2ccccc12)C(=O)N[C@@H](Cc1ccccc1)C(N)=O` (Ac-YTSLIEELIKKSEEKQKKNEEELKKLEEWAKKWNWF-NH2), the pEC50 in assay [1] was 8.42. Besides, the Activity in assay [2] is 4.8%. Besides, in assay [3], the Tm came to 65.3 °C.

In the case of `CC[C@H](C)[C@H](NC(=O)[C@H](CC(C)C)NC(=O)[C@H](CCC(=O)O)NC(=O)[C@H](CCC(=O)O)NC(=O)[C@@H](NC(=O)[C@H](CC(C)C)NC(=O)[C@H](CO)NC(=O)[C@@H](NC(=O)[C@H](Cc1ccc(O)cc1)NC(C)=O)[C@@H](C)O)[C@@H](C)CC)C(=O)N[C@@H](CCCCN)C(=O)N[C@@H](CCCCN)C(=O)N[C@@H](CO)C(=O)N[C@@H](CCC(=O)O)C(=O)N[C@@H](CCC(=O)O)C(=O)N[C@@H](CC(C)C)C(=O)N[C@@H](CCC(N)=O)C(=O)N[C@@H](CCCCN)C(=O)N[C@@H](CCCCN)C(=O)N[C@@H](CC(N)=O)C(=O)N[C@@H](CCC(=O)O)C(=O)N[C@@H](CCC(=O)O)C(=O)N[C@@H](CCC(=O)O)C(=O)N[C@@H](CC(C)C)C(=O)N[C@@H](CCCCN)C(=O)N[C@@H](CCCCN)C(=O)N[C@@H](CC(C)C)C(=O)N[C@@H](CCC(=O)O)C(=O)N[C@@H](CCC(=O)O)C(=O)N[C@@H](Cc1c[nH]c2ccccc12)C(=O)N[C@@H](C)C(=O)N[C@@H](CCCCN)C(=O)N[C@@H](CCCCN)C(=O)N[C@@H](Cc1c[nH]c2ccccc12)C(=O)N[C@@H](CC(N)=O)C(=O)N[C@@H](Cc1c[nH]c2ccccc12)C(=O)N[C@@H](Cc1ccccc1)C(N)=O` (Ac-YTSLIEELIKKSEELQKKNEEELKKLEEWAKKWNWF-NH2), the negative-log EC50 (pEC50) in assay [1] was 9.30. Further, the Activity in assay [2] is 10.4%. Besides, in assay [3], the Tm was 77.4 °C.

On to `CC[C@H](C)[C@H](NC(=O)[C@H](CC(C)C)NC(=O)[C@H](CCC(=O)O)NC(=O)[C@H](CCC(=O)O)NC(=O)[C@@H](NC(=O)[C@H](CC(C)C)NC(=O)[C@H](CO)NC(=O)[C@@H](NC(=O)[C@H](Cc1ccc(O)cc1)NC(C)=O)[C@@H](C)O)[C@@H](C)CC)C(=O)N[C@@H](CCCCN)C(=O)N[C@@H](CCCCN)C(=O)N[C@@H](CO)C(=O)N[C@@H](CCC(=O)O)C(=O)N[C@@H](CCC(=O)O)C(=O)N[C@@H](CCSC)C(=O)N[C@@H](CCC(N)=O)C(=O)N[C@@H](CCCCN)C(=O)N[C@@H](CCCCN)C(=O)N[C@@H](CC(N)=O)C(=O)N[C@@H](CCC(=O)O)C(=O)N[C@@H](CCC(=O)O)C(=O)N[C@@H](CCC(=O)O)C(=O)N[C@@H](CC(C)C)C(=O)N[C@@H](CCCCN)C(=O)N[C@@H](CCCCN)C(=O)N[C@@H](CC(C)C)C(=O)N[C@@H](CCC(=O)O)C(=O)N[C@@H](CCC(=O)O)C(=O)N[C@@H](Cc1c[nH]c2ccccc12)C(=O)N[C@@H](C)C(=O)N[C@@H](CCCCN)C(=O)N[C@@H](CCCCN)C(=O)N[C@@H](Cc1c[nH]c2ccccc12)C(=O)N[C@@H](CC(N)=O)C(=O)N[C@@H](Cc1c[nH]c2ccccc12)C(=O)N[C@@H](Cc1ccccc1)C(N)=O` (Ac-YTSLIEELIKKSEEMQKKNEEELKKLEEWAKKWNWF-NH2), for which the pEC50 in assay [1] was 9.05. In addition, in assay [2], the Activity was 9.2%. In addition, the midpoint of thermal melting (Tm) in assay [3] amounted to 74.6 °C.

For the molecule `CC[C@H](C)[C@H](NC(=O)[C@H](CC(C)C)NC(=O)[C@H](CCC(=O)O)NC(=O)[C@H](CCC(=O)O)NC(=O)[C@@H](NC(=O)[C@H](CC(C)C)NC(=O)[C@H](CO)NC(=O)[C@@H](NC(=O)[C@H](Cc1ccc(O)cc1)NC(C)=O)[C@@H](C)O)[C@@H](C)CC)C(=O)N[C@@H](CCCCN)C(=O)N[C@@H](CCCCN)C(=O)N[C@@H](CO)C(=O)N[C@@H](CCC(=O)O)C(=O)N[C@@H](CCC(=O)O)C(=O)N[C@@H](CC(N)=O)C(=O)N[C@@H](CCC(N)=O)C(=O)N[C@@H](CCCCN)C(=O)N[C@@H](CCCCN)C(=O)N[C@@H](CC(N)=O)C(=O)N[C@@H](CCC(=O)O)C(=O)N[C@@H](CCC(=O)O)C(=O)N[C@@H](CCC(=O)O)C(=O)N[C@@H](CC(C)C)C(=O)N[C@@H](CCCCN)C(=O)N[C@@H](CCCCN)C(=O)N[C@@H](CC(C)C)C(=O)N[C@@H](CCC(=O)O)C(=O)N[C@@H](CCC(=O)O)C(=O)N[C@@H](Cc1c[nH]c2ccccc12)C(=O)N[C@@H](C)C(=O)N[C@@H](CCCCN)C(=O)N[C@@H](CCCCN)C(=O)N[C@@H](Cc1c[nH]c2ccccc12)C(=O)N[C@@H](CC(N)=O)C(=O)N[C@@H](Cc1c[nH]c2ccccc12)C(=O)N[C@@H](Cc1ccccc1)C(N)=O` (Ac-YTSLIEELIKKSEENQKKNEEELKKLEEWAKKWNWF-NH2), in assay [1], the pEC50 is 8.44. In assay [2], the Activity is 4.4%. Also, the Tm in assay [3] was found to be 69 °C.

For `CC[C@H](C)[C@H](NC(=O)[C@H](CC(C)C)NC(=O)[C@H](CCC(=O)O)NC(=O)[C@H](CCC(=O)O)NC(=O)[C@@H](NC(=O)[C@H](CC(C)C)NC(=O)[C@H](CO)NC(=O)[C@@H](NC(=O)[C@H](Cc1ccc(O)cc1)NC(C)=O)[C@@H](C)O)[C@@H](C)CC)C(=O)N[C@@H](CCCCN)C(=O)N[C@@H](CCCCN)C(=O)N[C@@H](CO)C(=O)N[C@@H](CCC(=O)O)C(=O)N[C@@H](CCC(=O)O)C(=O)N1CCC[C@H]1C(=O)N[C@@H](CCC(N)=O)C(=O)N[C@@H](CCCCN)C(=O)N[C@@H](CCCCN)C(=O)N[C@@H](CC(N)=O)C(=O)N[C@@H](CCC(=O)O)C(=O)N[C@@H](CCC(=O)O)C(=O)N[C@@H](CCC(=O)O)C(=O)N[C@@H](CC(C)C)C(=O)N[C@@H](CCCCN)C(=O)N[C@@H](CCCCN)C(=O)N[C@@H](CC(C)C)C(=O)N[C@@H](CCC(=O)O)C(=O)N[C@@H](CCC(=O)O)C(=O)N[C@@H](Cc1c[nH]c2ccccc12)C(=O)N[C@@H](C)C(=O)N[C@@H](CCCCN)C(=O)N[C@@H](CCCCN)C(=O)N[C@@H](Cc1c[nH]c2ccccc12)C(=O)N[C@@H](CC(N)=O)C(=O)N[C@@H](Cc1c[nH]c2ccccc12)C(=O)N[C@@H](Cc1ccccc1)C(N)=O` (Ac-YTSLIEELIKKSEEPQKKNEEELKKLEEWAKKWNWF-NH2), the pEC50 in assay [1] was less than 6.00. Also, the Activity in assay [2] was found to be 0.3%. In addition, the Tm in assay [3] came out at 52 °C.

For `CC[C@H](C)[C@H](NC(=O)[C@H](CC(C)C)NC(=O)[C@H](CCC(=O)O)NC(=O)[C@H](CCC(=O)O)NC(=O)[C@@H](NC(=O)[C@H](CC(C)C)NC(=O)[C@H](CO)NC(=O)[C@@H](NC(=O)[C@H](Cc1ccc(O)cc1)NC(C)=O)[C@@H](C)O)[C@@H](C)CC)C(=O)N[C@@H](CCCCN)C(=O)N[C@@H](CCCCN)C(=O)N[C@@H](CO)C(=O)N[C@@H](CCC(=O)O)C(=O)N[C@@H](CCC(=O)O)C(=O)N[C@@H](CCCNC(=N)N)C(=O)N[C@@H](CCC(N)=O)C(=O)N[C@@H](CCCCN)C(=O)N[C@@H](CCCCN)C(=O)N[C@@H](CC(N)=O)C(=O)N[C@@H](CCC(=O)O)C(=O)N[C@@H](CCC(=O)O)C(=O)N[C@@H](CCC(=O)O)C(=O)N[C@@H](CC(C)C)C(=O)N[C@@H](CCCCN)C(=O)N[C@@H](CCCCN)C(=O)N[C@@H](CC(C)C)C(=O)N[C@@H](CCC(=O)O)C(=O)N[C@@H](CCC(=O)O)C(=O)N[C@@H](Cc1c[nH]c2ccccc12)C(=O)N[C@@H](C)C(=O)N[C@@H](CCCCN)C(=O)N[C@@H](CCCCN)C(=O)N[C@@H](Cc1c[nH]c2ccccc12)C(=O)N[C@@H](CC(N)=O)C(=O)N[C@@H](Cc1c[nH]c2ccccc12)C(=O)N[C@@H](Cc1ccccc1)C(N)=O` (Ac-YTSLIEELIKKSEERQKKNEEELKKLEEWAKKWNWF-NH2), in assay [1], the negative-log EC50 (pEC50) is 8.82. Further, in assay [2], the Activity worked out at 7.2%. Also, the melting temperature (Tm) in assay [3] amounted to 68.9 °C.
